# “Also recorded” adds a separate entry of the source.
# Legend:
# NaV channels = settings: cited from earlier work
# [1] = tested on: insect NaV channels (cockroach DUM neurons); assay: Whole-cell patch-clamp, NaV channel currents; format: cell-based, American cockroach (Periplaneta americana)
compound,measurement,setting,value
"NC1=N[C@H](O)[C@H]2[C@H]3O[C@]4(O)O[C@@H]([C@@H](O)[C@@]2(N1)[C@@H]4O)[C@]3(O)CO [TTX, tetrodotoxin]",effect on peak INa,NaV channels,reduce peak INa
same,inhibition of INa by TTX,[1],complete INa inhibition; also recorded: Complete block of INa

# — article PMC3654253 (Biochemical pharmacology, 2013)
